ChEMBL document CHEMBL3044823, “Design, synthesis, and evaluation of anti-inflammatory and ulcerogenicity of novel pyridazinone derivatives” (Med Chem Res, 2012)

Experiments:
Rattus norvegicus [1] = assay: Ulcerogenicity in Rattus norvegicus Sprague-Dawley (rat) stomach assessed as ulcer score at 50 mg/kg administered via intragastrically after 6 hr by hematoxylin and eosin staining; assay type: toxicity, organism-based; set-up: dose 50 mg/kg, route intragastric; details: in vivo, po
Rattus norvegicus [2] = assay: Ulcerogenicity in Rattus norvegicus Sprague-Dawley (rat) stomach assessed as appearance of cone shape gastric mucosa layer at 50 mg/kg administered via intragastrically after 6 hr by hematoxylin and eosin staining relative to untreated control; assay type: toxicity, organism-based; set-up: dose 50 mg/kg, route intragastric; details: in vivo, po
Rattus norvegicus [3] = assay: Ulcerogenicity in Rattus norvegicus Sprague-Dawley (rat) stomach assessed as decrease in gastric mucosa layer thickness at 50 mg/kg administered via intragastrically after 6 hr by hematoxylin and eosin staining relative to untreated control; assay type: toxicity, organism-based; set-up: dose 50 mg/kg, route intragastric; scale not given: the % may be the effect or the level left; details: in vivo, po
Rattus norvegicus [4] = assay: Anti-inflammatory activity in Rattus norvegicus Sprague-Dawley (rat) assessed as inhibition of carrageenan-induced paw edema at 10 mg/kg administered 1 hr prior to carrageenan challenge measured at 4 hr relative to control; assay type: functional
Rattus norvegicus [5] = assay: Anti-inflammatory activity in Rattus norvegicus Sprague-Dawley (rat) assessed as inhibition of carrageenan-induced paw edema at 10 mg/kg administered 1 hr prior to carrageenan challenge measured at 4 hr relative to diclofenac; assay type: functional
Rattus norvegicus [6] = assay: Anti-inflammatory activity in Rattus norvegicus Sprague-Dawley (rat) assessed as inhibition of carrageenan-induced paw edema at 10 mg/kg administered 1 hr prior to carrageenan challenge measured at 2 hr relative to control; assay type: functional
Rattus norvegicus [7] = assay: Anti-inflammatory activity in Rattus norvegicus Sprague-Dawley (rat) assessed as inhibition of carrageenan-induced paw edema at 10 mg/kg administered 1 hr prior to carrageenan challenge measured at 1 hr relative to control; assay type: functional

Structure (SMILES): Cc1cccc(C)c1Nc1ccc(=O)[nH]n1
- UI (Rattus norvegicus [1]): 1.8

Structure (SMILES): COc1ccc2c(c1)c(CC(=O)O)c(C)n2C(=O)c1ccc(Cl)cc1 [INDOMETHACIN]
- Activity (Rattus norvegicus [2]): Toxic
- Activity (Rattus norvegicus [3]): 20%
- UI (Rattus norvegicus [1]): 7.2

Structure (SMILES): O=c1ccc(Nc2ccccc2Br)n[nH]1
- UI (Rattus norvegicus [1]): 4.2

Structure (SMILES): O=C(O)Cc1ccccc1Nc1c(Cl)cccc1Cl [DICLOFENAC]
- inhibition in vivo at 10 mg/kg (Rattus norvegicus [4]): 78.3%
- inhibition in vivo at 10 mg/kg (Rattus norvegicus [5]): 100%
- inhibition in vivo at 10 mg/kg (Rattus norvegicus [6]): 73.5%
- inhibition in vivo at 10 mg/kg (Rattus norvegicus [7]): 65.3%

Structure (SMILES): O=C(O)c1ccccc1Oc1ccc(=O)[nH]n1
- UI (Rattus norvegicus [1]): 2
